Three molecules from patent US6803195B1, “Facile detection of cancer and cancer risk based on level of coordination between alleles” (Ramot At Tel-Aviv University Ltd., priority 1999, dated 2004) can be followed below.

“And” between values parts separate entries of the source, which are not always exact repeats. Equal entries are not always repeated.

Test [1] concerns CAD samples (hematological malignancy patients at diagnosis). Nature of the test: FISH replication assay, cultures of hematological malignancy patients (CAD) with chromatin modifiers (Example 10). It counts as cell-based, human. Particulars: for frequency (%) of SD cells, Mean: N = 10; for replication pattern in cells derived from cancer patients: cultured cells with chromatin modifier. The text has this: (§1) Cultures were set up from 44 healthy individuals (hereafter called CON) and 20 hematological malignancy patients at diagnosis (hereafter termed CAD). For 20 of the CON samples and all of the CAD samples peripheral in addition to the setting up cultures in the regular growth medium, cultures were set up in medium containing 5-azacytidine (10^−7M; Sigma, USA; hereafter referred to as AZA) a demethylating agent. In addition, cultures from 6 CON and 10 CAD samples were set up in medium containing a deacetylating agents, either Trichostatin A (33 nM; Sigma, USA; hereafter referred to as TSA) or Sodium Butirate (1 nM; Sigma, USA; hereafter referred to as NB), two well described acetylating agents.
(§2) These samples were hybridized with two commercial probes: the AML1 probe (LSI 21, […]) and the α-satellite probe specific for centromere 17 (32-130017, hereafter marked as CEN17). The results are summarized in Table 1 giving the number of samples hybridized with each probe (N), Mean and standard deviation (stdev) as well as the p value obtained using two tailed student's t-test (Microsoft Office 98).

The test system of test [2] is CON samples (healthy individuals). Nature of the test: FISH replication assay, cultures of healthy individuals (CON) with chromatin modifiers (Example 10). The class given is cell-based, human. Conditions: cultured cells with chromatin modifier.
Source text: as §1, §2

Test [3] relates to peripheral blood lymphocytes (PBL). The experiment in a line: FISH replication assay on PBL of healthy donors treated with GCSF. The class given is in vivo, human. Particulars: five days after GCSF treatment; for % SD after GCSF treatment, Average: PBL of healthy donors, n = 6 as printed; for % SD after GCSF treatment: PBL of individual healthy donors. The text has this: Healthy subjects treated with GCSF. Seven first degree relatives (sibling or parent) of patients suffering from hematological malignancies who were candidates for donating peripheral blood stem cells agreed to participate in the study. PBL were collected before treatment with GCSF and five days after treatment, on the day of collecting cells for transplantation. Six donors were male, one female.
Comparison of synchrony in healthy subjects, cancer patients and GCSF-treated healthy donors. Bone marrow and PBL samples were obtained with informed consent from healthy control subjects and patients as detailed hereinabove. Samples were analyzed by FISH as described hereinabove.
It is believed that the SD cell percentage values are enhanced for a limited time and return to normal after cessation of GCSF treatment. The samples tested here were obtained five days after GCSF treatment. This period is usually chosen for obtaining cells for transplantation, because at the effect of GCSF is maximal five days after administration.

Regarding `CC(/C=C/C(=O)NO)=C\[C@@H](C)C(=O)c1ccc(N(C)C)cc1` [TSA, Trichostatin A], the “frequency (%) of SD cells, Mean” value was “Mean = 24.2%” in test [1] (AML1 locus, CAD + TSA (33 nM)) and “Mean = 20.3%” in test [1] (CEN17 locus, CAD + TSA (33 nM)). Also, the “replication pattern in cells derived from cancer patients” value in test [1] is reported as “attenuate the replication pattern presented in cells derived from cancer patients towards the normal”. Moreover, in test [2], the “replication pattern observed in normal genomes” value is “not affecting”.
Turning to `CCCC(=O)[O-].[Na+]` [NB, Sodium Butirate], the “frequency (%) of SD cells, Mean” value in test [1] (AML1 locus, CAD + NB (1 nM)) is recorded as “Mean = 23.2%”; in test [1] (CEN17 locus, CAD + NB (1 nM)), “Mean = 19.6%”. Besides, the “replication pattern in cells derived from cancer patients” value in test [1] is “attenuate the replication pattern presented in cells derived from cancer patients towards the normal”. For the same molecule, in test [2], the “replication pattern observed in normal genomes” value is listed as “not affecting”.

B1: GCSF: hematopoietic growth factor given to donors of bone marrow cells to enhance the number of stem cells (protein, UniProt P09919 31-207, looked up)
Granulocyte …: TPLGPASSLPQSFLLKCLEQVRKIQGDGAALQEKLVSECATYKLCHPEELVLLGHSLGIPWAPLSSCPSQALQLAGCLSQLHSGLFLYQGLLQALEGISPELGPTLDTLQLDVADFATTIWQQMEELGMAPALQPTQGAMPAFASAFQRRAGGVLVASHLQSFLEVSYRVLRHLAQP
Regarding B1, in test [3] (21q22 probe (D21S55)), the “% SD after GCSF treatment, Average” value came to 35.42%; the “% SD after GCSF treatment” value is 32% and 43% and 39% (2×) and 31% and 29% and 35%. Besides, in test [3] (TP53 probe), the “% SD after GCSF treatment, Average” value stood at 36.57%; the “% SD after GCSF treatment” value was 34% (2×) and 41% and 38% and 36% (2×) and 37%.
